Laboratory results: US8415340B2, “Triazine kinase inhibitors” (Bristol-Myers Squibb Company, priority 2007, dated 2013)

Target: IGF1-receptor (Homo sapiens, UniProt P08069)
Experiment: IGF1-Receptor Tyrosine Kinase Assay
Assay type: biochemical
Conditions: in vitro kinase; ATP 25 μM; read-out: IGF1R kinase IC50
Method: D. IGF1-Receptor Tyrosine Kinase Assay
The assays were performed in U-bottom 384-well plates. The final assay volume was 30 μl prepared from 15 μl additions of enzyme and substrates (fluoresceinated IGF1R substrate peptide and ATP) and test compounds in assay buffer (100 mM HEPES pH 7.4, 10 mM MnCl2, 0.015% Brij35 and 4 mM DTT). The reaction was initiated by the combination of IGF1-receptor with substrates and test compounds. The reaction was incubated at room temperature for 60 min. and terminated by adding 30 μl of 35 mM EDTA to each sample. The reaction mixture was analyzed on the Caliper LabChip 3000 by electrophoretic separation of the fluorescent substrate and phosphorylated product. Inhibition data were calculated by comparison to no enzyme control reactions for 100% inhibition and vehicle-only reactions for 0% inhibition. The final concentration of reagents in the assays is ATP, 25 μM; FL-peptide, 1.5 μM; IGF1-Receptor, 14 nM; and DMSO, 1.6%. Dose response curves were generated to determine the concentration required inhibiting 50% of kinase activity (IC50). Compounds were dissolved at 10 mM in dimethylsulfoxide (DMSO) and evaluated at eleven concentrations, each in duplicate. IC50 values were derived by non-linear regression analysis.

IGF1-receptor, sequence (P08069 31-1367): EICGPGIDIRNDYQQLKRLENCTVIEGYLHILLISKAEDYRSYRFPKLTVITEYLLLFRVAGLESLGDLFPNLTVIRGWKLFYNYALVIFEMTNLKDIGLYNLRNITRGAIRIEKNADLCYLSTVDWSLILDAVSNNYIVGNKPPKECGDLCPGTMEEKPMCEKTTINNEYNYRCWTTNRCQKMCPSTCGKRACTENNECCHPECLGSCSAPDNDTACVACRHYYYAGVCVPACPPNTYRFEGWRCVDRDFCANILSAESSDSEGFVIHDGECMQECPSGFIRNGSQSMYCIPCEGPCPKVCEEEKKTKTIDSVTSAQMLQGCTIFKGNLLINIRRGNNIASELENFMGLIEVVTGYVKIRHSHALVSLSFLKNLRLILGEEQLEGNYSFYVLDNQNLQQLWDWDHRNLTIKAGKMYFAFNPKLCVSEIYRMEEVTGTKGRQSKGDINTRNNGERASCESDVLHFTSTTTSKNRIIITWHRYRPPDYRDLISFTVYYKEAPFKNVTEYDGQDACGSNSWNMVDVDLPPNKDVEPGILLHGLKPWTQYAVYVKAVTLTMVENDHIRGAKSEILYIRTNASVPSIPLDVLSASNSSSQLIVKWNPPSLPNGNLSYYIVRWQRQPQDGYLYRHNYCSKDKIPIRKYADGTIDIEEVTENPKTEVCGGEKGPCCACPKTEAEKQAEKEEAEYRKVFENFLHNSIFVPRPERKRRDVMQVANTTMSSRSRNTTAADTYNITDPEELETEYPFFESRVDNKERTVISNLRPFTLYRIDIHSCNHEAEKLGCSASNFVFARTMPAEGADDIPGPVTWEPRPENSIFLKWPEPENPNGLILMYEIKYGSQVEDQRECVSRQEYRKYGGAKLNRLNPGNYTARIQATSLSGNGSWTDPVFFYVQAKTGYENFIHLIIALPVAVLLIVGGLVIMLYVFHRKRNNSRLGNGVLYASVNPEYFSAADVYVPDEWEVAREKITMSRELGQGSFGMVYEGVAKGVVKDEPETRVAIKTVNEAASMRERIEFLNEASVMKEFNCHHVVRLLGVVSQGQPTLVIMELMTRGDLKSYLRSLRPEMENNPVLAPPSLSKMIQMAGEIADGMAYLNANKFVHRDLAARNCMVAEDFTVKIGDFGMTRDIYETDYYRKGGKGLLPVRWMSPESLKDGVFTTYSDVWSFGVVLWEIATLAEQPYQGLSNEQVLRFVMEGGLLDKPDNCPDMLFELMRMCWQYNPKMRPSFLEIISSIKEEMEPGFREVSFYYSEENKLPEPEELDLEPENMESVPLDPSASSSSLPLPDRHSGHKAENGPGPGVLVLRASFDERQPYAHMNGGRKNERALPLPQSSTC

IC50 [nM] | SMILES
7 | COc1nc(Nc2cc(C3CC3)[nH]n2)nc(N2C[C@@H](OC)C[C@H]2C(=O)Nc2cnccn2)n1 [Example 20, (2S,4S)-1-(4-(5-Cyclopropyl-1H-pyrazol-3-ylamino)-6-methoxy-1,3,5-triazin-2-yl)-4-methoxy-N-(pyrazin-2-yl)pyrrolidine-2-carboxamide]
3 | COCCN1CCN(c2nc(Nc3cc(C4CC4)n[nH]3)nc(N3C[C@@H](OC)C[C@H]3C(=O)Nc3cnccn3)n2)CC1 [Example 25, (2S,4S)-1-(4-(3-Cyclopropyl-1H-pyrazol-5-ylamino)-6-(4-(2-methoxyethyl)piperazin-1-yl)-1,3,5-triazin-2-yl)-4-methoxy-N-(pyrazin-2-yl)pyrrolidine-2-carboxamide]
7 | CO[C@H]1C[C@@H](C(=O)Nc2cnccn2)N(c2nc(NCCN(C)C)nc(Nc3cc(C4CC4)n[nH]3)n2)C1 [Example 27, (2S,4S)-1-(4-(3-Cyclopropyl-1H-pyrazol-5-ylamino)-6-(2-(dimethylamino)ethylamino)-1,3,5-triazin-2-yl)-4-methoxy-N-(pyrazin-2-yl)pyrrolidine-2-carboxamide]
3 | CO[C@H]1C[C@@H](C(=O)Nc2cnccn2)N(c2nc(Nc3cc(C4CC4)[nH]n3)nc(N3CCSCC3)n2)C1 [Example 34, (2S,4S)-1-(4-(5-Cyclopropyl-1H-pyrazol-3-ylamino)-6-thiomorpholino-1,3,5-triazin-2-yl)-4-methoxy-N-(pyrazin-2-yl)pyrrolidine-2-carboxamide]
3 | CO[C@H]1C[C@@H](C(=O)Nc2cnccn2)N(c2nc(Nc3cc(C4CC4)n[nH]3)nc(N3CCN(S(C)(=O)=O)CC3)n2)C1 [Example 46, (2S,4S)-1-(4-(3-Cyclopropyl-1H-pyrazol-5-ylamino)-6-(4-(methylsulfonyl)piperazin-1-yl)-1,3,5-triazin-2-yl)-4-methoxy-N-(pyrazin-2-yl)pyrrolidine-2-carboxamide]
95 | CO[C@H]1C[C@@H](C(=O)Nc2cnccn2)N(c2nc(Nc3cc(C4CC4)[nH]n3)nc(-n3nc(C4CC4)cc3N)n2)C1 [Example 58, (2S,4S)-1-(4-(5-Amino-3-cyclopropyl-1H-pyrazol-1-yl)-6-(5-cyclopropyl-1H-pyrazol-3-ylamino)-1,3,5-triazin-2-yl)-4-methoxy-N-(pyrazin-2-yl)pyrrolidine-2-carboxamide]
2 | CO[C@H]1C[C@@H](C(=O)Nc2ccc(F)nc2)N(c2nc(Nc3cc(C4CC4)n[nH]3)nc(N3CCOCC3)n2)C1 [Example 62, (2S,4S)-1-(4-(3-Cyclopropyl-1H-pyrazol-5-ylamino)-6-morpholino-1,3,5-triazin-2-yl)-N-(6-fluoropyridin-3-yl)-4-methoxypyrrolidine-2-carboxamide]
56 | O=C(N[C@H]1CCCN(c2nc(Nc3cc(C4CC4)n[nH]3)nc(N3C[C@H](F)C[C@H]3C(=O)Nc3cnccn3)n2)C1)C1CC1 [Example 72, (2S,4R)-1-(4-((S)-3-(Cyclopropanecarboxamido)piperidin-1-yl)-6-(3-cyclopropyl-1H-pyrazol-5-ylamino)-1,3,5-triazin-2-yl)-4-fluoro-N-(pyrazin-2-yl)pyrrolidine-2-carboxamide]
7 | O=C(Nc1ncns1)[C@@H]1C[C@@H](F)CN1c1nc(Nc2cc(C3CC3)n[nH]2)nc(N2CCOCC2)n1 [Example 82, (2S,4R)-1-(4-(3-Cyclopropyl-1H-pyrazol-5-ylamino)-6-morpholino-1,3,5-triazin-2-yl)-4-fluoro-N-(1,2,4-thiadiazol-5-yl)pyrrolidine-2-carboxamide]
2 | COCCN1CCN(c2nc(Nc3cc(C4CC4)n[nH]3)nc(N3C[C@@H](O)C[C@H]3C(=O)Nc3cnccn3)n2)CC1 [Example 87, (2S,4S)-1-(4-(3-Cyclopropyl-1H-pyrazol-5-ylamino)-6-(4-(2-methoxyethyl)piperazin-1-yl)-1,3,5-triazin-2-yl)-4-hydroxy-N-(pyrazin-2-yl)pyrrolidine-2-carboxamide]
